Legend:
[1] = Binding affinity against kappa opioid receptor from calf frontal cortex.
Mu-type opioid receptor = Mu-type opioid receptor (Bos taurus, UniProt P79350); test: ChEBML_136067
Excerpt: Binding affinity against mu opioid receptor from calf frontal cortex.

[2] = Binding affinity against delta opioid receptor from calf frontal cortex.

Chain of Mu-type opioid receptor (P79350 whole entry): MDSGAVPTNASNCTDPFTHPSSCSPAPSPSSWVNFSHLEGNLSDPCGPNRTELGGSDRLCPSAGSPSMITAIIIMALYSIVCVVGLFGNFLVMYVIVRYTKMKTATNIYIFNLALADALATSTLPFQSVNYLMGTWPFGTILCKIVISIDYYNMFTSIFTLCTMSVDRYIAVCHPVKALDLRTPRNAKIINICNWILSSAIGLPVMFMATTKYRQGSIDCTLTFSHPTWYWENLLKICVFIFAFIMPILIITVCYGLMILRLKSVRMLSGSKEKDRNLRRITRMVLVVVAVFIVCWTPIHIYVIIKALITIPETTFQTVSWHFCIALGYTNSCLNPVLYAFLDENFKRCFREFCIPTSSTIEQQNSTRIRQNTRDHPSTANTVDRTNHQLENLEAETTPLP

Structure (SMILES) | IC50 [1] | IC50 (Mu-type opioid receptor) | IC50 [2]
C[C@@]12Oc3c(O)ccc4c3C13CCN(CC1CC1)C(C4)[C@]3(NC(=O)CCc1ccc([N+](=O)[O-])cc1)CCC2=O (stereo partly drawn) [1N-[4-cyclopropylmethyl-10-hydroxy-13-methyl-14-oxo-(13R,17S)-12-oxa-4-azapentacyclo[9.6.1.01,13.05,17.07,18]octadeca-7(18),8,10-trien-17-yl]-3-(4-nitrophenyl)propanamide] | 162 nM |  | 
COc1ccc2c3c1O[C@H]1C(=O)C=C[C@@]4(NC(=O)C=Cc5ccc([N+](=O)[O-])cc5)C(C2)N(CC2CC2)CCC314 (stereo partly drawn) [1N-[4-cyclopropylmethyl-10-methoxy-14-oxo-(13R,17S)-12-oxa-4-azapentacyclo[9.6.1.01,13.05,17.07,18]octadeca-7(18),8,10,15-tetraen-17-yl]-4-(4-nitrophenyl)-(Z)-2-butenamide] | 5 nM | 1.5 nM | 54 nM
CN1CCC23c4c5ccc(O)c4O[C@@]2(C)C(=O)CC[C@@]3(NC(=O)/C=C/c2ccc([N+](=O)[O-])cc2)C1C5 (stereo partly drawn) [1N-[10-hydroxy-4,13-dimethyl-14-oxo-(13R,17S)-12-oxa-4-azapentacyclo[9.6.1.01,13.05,17.07,18]octadeca-7(18),8,10-trien-17-yl]-4-(4-nitrophenyl)-(Z)-2-butenamide] | 116 nM |  | 51 nM
O=C(C=Cc1ccc([N+](=O)[O-])cc1)N[C@@]12C=CC(=O)[C@@H]3Oc4c(O)ccc5c4C31CCN(CC1CC1)C2C5 (stereo partly drawn) [1N-[4-cyclopropylmethyl-10-hydroxy-14-oxo-(13R,17S)-12-oxa-4-azapentacyclo[9.6.1.01,13.05,17.07,18]octadeca-7(18),8,10,15-tetraen-17-yl]-4-(4-nitrophenyl)-(Z)-2-butenamide] | 11 nM |  | 106 nM
COc1ccc2c3c1O[C@H]1C(=O)C=C[C@@]4(NC(=O)C=Cc5ccc([N+](=O)[O-])cc5)C(C2)N(C)CCC314 (stereo partly drawn) [1N-[10-methoxy-4-methyl-14-oxo-(13R,17S)-12-oxa-4-azapentacyclo[9.6.1.01,13.05,17.07,18]octadeca-7(18),8,10,15-tetraen-17-yl]-4-(4-nitrophenyl)-(Z)-2-butenamide] | 68 nM |  | 46 nM
C[C@@]12Oc3c(O)ccc4c3C13CCN(CC1CC1)C(C4)[C@]3(NC(=O)/C=C/c1ccc([N+](=O)[O-])cc1)CCC2=O (stereo partly drawn) [1N-[4-cyclopropylmethyl-10-hydroxy-13-methyl-14-oxo-(13R,17S)-12-oxa-4-azapentacyclo[9.6.1.01,13.05,17.07,18]octadeca-7(18),8,10-trien-17-yl]-4-(4-nitrophenyl)-(Z)-2-butenamide] | 126 nM |  | 11 nM
O=C(/C=C/c1ccc([N+](=O)[O-])cc1)N[C@@]12CCC(=O)[C@@H]3Oc4c(O)ccc5c4[C@@]31CCN(CC1CC1)[C@@H]2C5 [1N-[4-cyclopropylmethyl-10-hydroxy-14-oxo-(13R,17S)-12-oxa-4-azapentacyclo[9.6.1.01,13.05,17.07,18]octadeca-7(18),8,10-trien-17-yl]-4-(4-nitrophenyl)-(Z)-2-butenamide] | 12 nM |  | 21 nM
CN1CC[C@]23c4c5ccc(O)c4O[C@H]2C(=O)CC[C@@]3(NC(=O)/C=C/c2ccc([N+](=O)[O-])cc2)[C@H]1C5 | 6.6 nM |  | 3.5 nM

From BindingDB's records for doi:10.1021/jm00073a015 (Institute, 1993)
